Test results from patent US20260115187A1, “TRICYCLIC SKELETON COMPOUND AND USE THEREOF IN PREPARATION OF ANTITUMOR DRUG” (ZHONGSHAN HOSPITAL, FUDAN UNIVERSITY, priority 2024, published 2026).

How the values were obtained:
[1] = system: PLC/PRF/5 KSR2 OE (PLC cells overexpressing KSR2); assay: Cell IC50 assay (CCK8 cell viability), PLC/PRF/5 KSR2 OE; format: cell-based; settings: Homo sapiens, PLC-PRF-5; hepatoma cells, 72 h incubation, CCK8; read-out: IC50 value of cell viability, PLC/PRF/5 KSR2 OE (PLC cells overexpressing KSR2)
Description: (§1) (1) Cell Preparation: Hepatoma cells (PLC/PRF/5, sourced from the Chinese Academy of Sciences; MHCC97H, sourced from this research institute) in good growth condition are prepared. The cells are trypsinized, diluted, and seeded into 96-well cell culture plates. 1,000-3,000 cells are added per well. The plates are then placed in a cell culture incubator at 37° C. with 5% CO2. Drugs are added after the cells have adhered for 24 h.
(§2) (2) Drug Addition: The drugs are subjected to gradient dilution, typically setting 9 concentrations. Control groups containing no drug medium and medium containing only the drug solvent are also set up. The diluted drugs are added to the cell culture plates seeded the previous day. The plates are incubated for 72 h.
(§3) (3) CCK8 Assay for Cell Viability: CCK8 is mixed with culture medium at a 1:10 ratio. 100 μL of this mixture is added to each well of the cell culture plate. After incubating for 2-4 h, the OD values are measured using a microplate reader.
(§4) (4) Data Analysis: Based on the corresponding OD values, the data are compiled, IC50 curves are plotted, and the IC50 values are obtained.
(§5) (5) IC50 Verification: The theoretical IC50 value is identified from the IC50 curve. Drug concentrations at ½ times, 1 time, and 2 times this theoretical value are used for verification.

[2] = system: MHCC97H KSR2 OE (97H cells overexpressing KSR2); assay: Cell IC50 assay (CCK8 cell viability), MHCC97H KSR2 OE; format: cell-based; settings: Homo sapiens, hepatoma cells, 72 h incubation, CCK8, read-out: IC50 value of cell viability, MHCC97H KSR2 OE (97H cells overexpressing KSR2)
Description: as §1, §2, §3, §4, §5

| SMILES | IC50 [1] | IC50 [2] |
| --- | --- | --- |
| CN1CCN(C2CCN(CCCNC(=O)c3c4c(nn3C)-c3cc(C#N)c(Cl)cc3OC4)CC2)CC1 [Compound 122] | 4 µM | 5 µM |
| CN1CCN(C2CCN(CCCNC(=O)c3c4c(nn3C)-c3ccc(-c5cn[nH]c5)cc3OC4)CC2)CC1 [Compound 123] | 114 µM | 85 µM |
| CN1CCN(C2CCN(CCCNC(=O)c3c4c(nn3C)-c3ccc(-n5nccn5)cc3OC4)CC2)CC1 [Compound 124] | 2 µM | 5 µM |
| CN1CCN(C2CCN(CCCNC(=O)c3n[nH]c4c3COc3cc(Cl)ccc3-4)CC2)CC1 [Compound 125] | 1 µM | 1 µM |
| CN1CCN(C2CN(CCCNC(=O)c3n[nH]c4c3COc3cc(Cl)ccc3-4)C2)CC1 [Compound 126] | 9 µM | 7 µM |
| CN1CCN(C2CCN(CCCNC(=O)c3nn(C)c4c3COc3cc(-c5cn[nH]c5)ccc3-4)CC2)CC1 [Compound 127] | 8 µM | 4 µM |
| CN1CCN(C2CCN(CCCNC(=O)c3n[nH]c4c3COc3cc(Cl)c(C#N)cc3-4)CC2)CC1 [Compound 128] | 4 µM | 6 µM |
| CCN1CCN(C2CCN(CCCNC(=O)c3n[nH]c4c3COc3cc(Cl)c(C#N)cc3-4)CC2)CC1 [Compound 129] | 5 µM | 4 µM |
| CN1CCN(C2CCN(CCCNC(=O)c3n[nH]c4c3COc3cc(C(F)(F)F)c(C#N)cc3-4)CC2)CC1 [Compound 130] | 10 µM | 4 µM |
| CN1CCN(C2CN(CCCNC(=O)c3n[nH]c4c3COc3cc(C(F)(F)F)c(C#N)cc3-4)C2)CC1 [Compound 131] | 14 µM | 9 µM |
| CCN1CCN(C2CCN(CCCNC(=O)c3n[nH]c4c3COc3cc(C(F)(F)F)c(C#N)cc3-4)CC2)CC1 [Compound 132] | 4 µM | 1 µM |
| CCN1CCN(C2CCN(CCCNC(=O)c3nn(C)c4c3COc3cc(-c5cnn(C)c5)ccc3-4)CC2)CC1 [Compound 133] | 2 µM | 1 µM |
